Patent US5922697A, “Compounds, compositions and methods for inhibiting the binding of proteins containing an SH2 domain to cognate phosphorylated proteins” (Warner-Lambert Company, priority 1998, dated 1999)
Read-outs that look alike come from different tables or passages of the source.

Experiments:
Src SH2 = target: T1, Src SH2 (Homo sapiens, UniProt P12931); assay: Inhibition of 125I-phosphopeptide binding to immobilized Src SH2; details: competitive 125I-phosphopeptide displacement, GST-Src SH2 fusion protein, pH 7.5, room temperature, 20 minutes
T1 construct: glutathione-S-transferase(GST)-Src SH2 fusion protein
T1 sequence (P12931 151-248 limits assumed): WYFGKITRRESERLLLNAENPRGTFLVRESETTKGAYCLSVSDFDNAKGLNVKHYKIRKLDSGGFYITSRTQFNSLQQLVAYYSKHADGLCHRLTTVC
Procedure: The binding affinities of compounds of the present invention to Src SH2 was determined using a competitive radiolabeled phosphopeptide displacement assay.
Binding was performed at room temperature for 20 minutes while continuously inverting the plate. […] Results are expressed as IC50 values in Table 1 below.

Abl SH2 = target: T2, Abl SH2 (Homo sapiens, UniProt P00519); assay: Inhibition of 125I-phosphopeptide binding to immobilized Abl SH2
T2 construct: glutathione-S-transferase(GST)-Abl SH2 fusion protein
T2 sequence (P00519 127-217 limits assumed): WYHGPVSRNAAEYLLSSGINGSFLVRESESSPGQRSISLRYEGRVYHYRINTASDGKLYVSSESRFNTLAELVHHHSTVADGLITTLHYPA
Procedure: The binding affinities of compounds of the present invention to Abl SH2 was determined using a competitive radiolabeled phosphopeptide displacement assay. […] Binding was performed at room temperature for 20 minutes while continuously inverting the plate.

[1] = IC50, Abl SH2 Binding, competitive 125I-phosphopeptide displacement, GST-Abl SH2 fusion protein, pH 7.5, room temperature, 20 minutes
[2] = read-out: IC50, SRC SH2 Binding
[3] = competitive 125I-phosphopeptide displacement, GST-Abl SH2 fusion protein, pH 7.5, room temperature, 20 minutes; read-out: IC50, Abl SH2 Binding

Row | SMILES | IC50 (Src SH2; IC50, SRC SH2 Binding) [µM] | IC50 (Abl SH2; [1]) [µM] | other results
1 | CC(=O)N[C@@H](Cc1ccc(OP(=O)(O)O)cc1)C(=O)NC(C)c1ccc(OCC2CCCCC2)c(CC(N)=O)c1 (mixture of isomers) [Example 65, (S)-Phosphoric acid mono-(4-{2-acetylamino-2-[(RS)-1-(3-carbamoylmethyl-4-cyclohexylmethoxy-phenyl)-ethylcarbamoyl]-ethyl}-phenyl) ester] | 9.2 | 24 | 
2 | CC(=O)N[C@@H](Cc1ccc(OP(=O)(O)O)cc1)C(=O)NCc1ccc(OC(C)CC2CCCCC2)c(C(N)=O)c1 (mixture of isomers) [Example 66, Phosphoric acid mono-(4-{(S)-2-acetylamino-2-[3-carbamoyl-4-(2-cyclohexyl-(RS)-1-methyl-ethoxy)-benzylcarbamoyl]-ethyl}-phenyl) ester] | 3.8 | 11 | 
3 | CC(=O)N[C@@H](Cc1ccc(OP(=O)(O)O)cc1)C(=O)NC(Cc1ccccc1)c1ccc(OCC2CCCCC2)c(C(N)=O)c1 (mixture of isomers) [Example 67, Phosphoric acid mono-(4{(S)-2-acetylamino-2-[(RS)-1-(3-carbamoyl-4-cyclohexylmethoxy-phenyl)-2-phenyl-ethylcarbamoyl]-ethyl}-phenyl) ester] | 1 | 6 | 
4 | CC(=O)N[C@@H](Cc1ccc(OP(=O)(O)O)cc1)C(=O)NC(C)c1ccc(OCc2cc(C)cc(C)c2)c(C(N)=O)c1 (mixture of isomers) [Example 68, Phosphoric acid mono-[4-((S)-2-acetylamino-2-{(RS)-1-[3-carbamoyl-4-(3,5-dimethyl-benzyloxy)-phenyl]-ethylcarbamoyl}-ethyl)-phenyl] ester] | 1.1 | 5.7 | 
5 | CCCC(NC(=O)[C@H](Cc1ccc(OP(=O)(O)O)cc1)NC(C)=O)c1ccc(OCC2CCCCC2)c(C(N)=O)c1 (mixture of isomers) [Example 69, Phosphoric acid mono-(4-{(S)-2-acetylamino-2-[(RS)-1-(3-carbamoyl-4-cyclohexylmethoxy-phenyl)-butylcarbamoyl]-ethyl}-phenyl) ester] | 2.1 | 7.4 | 
6 | CC(=O)N[C@@H](Cc1ccc(P(=O)(O)O)cc1)C(=O)NC(C)c1ccc(OCC2CCCCC2)c(C(N)=O)c1 (mixture of isomers) [Example 73, (4-{(S)-2-Acetylamino-2-[(RS)-1-(3-carbamoyl-4-cyclohexylmethoxy-phenyl)-ethylcarbamoyl]-ethyl}-phenyl)-phosphonic acid] |  |  | IC50 (Src SH2; [2]): 8.6 µM; IC50 (Abl SH2; [3]): 26 µM
7 | CC(NC(=O)Nc1cccc2cc(OP(=O)(O)O)ccc12)c1ccc(OCC2CCCCC2)c(C(N)=O)c1 (racemic) [Example 75, (+/-)-Phosphoric acid mono-(5-{3-[1-(3-carbamoyl-4-cyclohexylmethoxy-phenyl)-ethyl]-ureido}-naphthalen-2-yl) ester] | 7.2 | ~60 | 
8 | CC(=O)N[C@@H](Cc1ccc(C(F)(F)P(=O)(O)O)cc1)C(=O)NC(C)c1ccc(OCC2CCCCC2)c(C(N)=O)c1 (single isomer, unassigned) [Example 63b, [S-(R*,R*)]- or [S-(R*,S*)]-[(4-{2-Acetylamino-2-[1-(3-carbamoyl-4-cyclohexylmethoxy-phenyl)-ethylcarbamoyl]-ethyl}-phenyl)-difluoro-methyl]-phosphonic acid] |  |  | IC50 (Src SH2; [2]): 29 µM; IC50 (Abl SH2; [3]): 59 µM
9 | CC(=O)N[C@@H](Cc1ccc(OP(=O)(O)O)cc1)C(=O)NC(C)c1ccc(OC(C)CC2CCCCC2)c(C(N)=O)c1 (single isomer, unassigned) [Example 64a, Phosphoric acid mono-[4-(2-acetylamino-2-{1-[3-carbamoyl-4-(2-cyclohexyl-1-methyl-ethoxy)-phenyl]-ethylcarbamoyl]-ethyl)-phenyl] ester] | 0.6 | 2.4 | 
10 | CN(CCCC1CCCCC1)C(=O)[C@H](CCC(=O)O)NC(=O)N(CC(=O)O)Cc1ccc(OP(=O)(O)O)cc1 [Example 35, (S)-4-[3-carboxymethyl-3-(4-phosphonooxy-benzyl)-ureido]-4-[(3-cyclohexyl-propyl)-methyl-carbamoyl]-butyric acid] |  |  | IC50 (Abl SH2; read-out: IC50, Abl SH2 Binding; competitive 125I-phosphopeptide displacement, GST-Abl SH2 fusion protein, pH 7.5, room temperature, 20 minutes): > 100 µM
11 | NC(=O)c1cc(CNC(=O)c2ccc(OP(=O)(O)O)cc2)ccc1OCC1CCCCC1 [Example 44, Phosphoric acid mono-[4-(3-carbamoyl-4-cyclohexyl-methoxy-benzylcarbamoyl)-phenyl] ester] |  |  | IC50 (Src SH2; [2]): 6.5 µM
12 | NC(=O)c1cc(CNC(=O)c2ccc(C(F)(F)P(=O)(O)O)cc2)ccc1OCC1CCCCC1 [Example 45, [4-(3-Carbamoyl-4-cyclohexylmethoxy-benzylcarbamoyl)-phenyl]-difluoro-methyl-phosphonic acid] |  |  | IC50 (Src SH2; [2]): ~50 µM
13 | Cc1cc(C(=O)NCc2ccc(OCC3CCCCC3)c(C(N)=O)c2)cc(C)c1OP(=O)(O)O [Example 46, Phosphoric acid mono-[4-(3-carbamoyl-4-cyclohexyl-methoxy-benzylcarbamoyl)-2,6-dimethyl-phenyl] ester] | 12.5 |  | 
14 | NC(=O)c1cc(CNC(=O)c2ccc(OP(=O)(O)O)c(Cl)c2)ccc1OCC1CCCCC1 [Example 47, Phosphoric acid mono-[4-(3-carbamoyl-4-cyclohexyl-methoxy-benzylcarbamoyl)-2-chloro-phenyl] ester] | ~20 |  | 
15 | CNC(=O)c1cc(CNC(=O)c2ccc(OP(=O)(O)O)cc2)ccc1OCC1CCCCC1 [Example 48, Phosphoric acid mono-[4-(4-cyclohexylmethoxy-3-methylcarbamoyl-benzylcarbamoyl)-phenyl] ester] | ~30 |  | 
16 | CC(=O)N[C@@H](Cc1ccc(OP(=O)(O)O)cc1)C(=O)NCc1ccc(OCC2CCCCC2)c(C(N)=O)c1 [Example 49, (S)-Phosphoric acid mono-{4-[2-acetylamino-2-(3-carbamoyl-4-cyclohexylmethoxy-benzylcarbamoyl)-ethyl]-phenyl} ester] | 8.5 |  | 
17 | CC(=O)N[C@@H](Cc1ccc(OP(=O)(O)O)cc1)C(=O)NCc1ccc(OCc2cc(C)cc(C)c2)c(C(N)=O)c1 [Example 50, (S)-Phosphoric acid mono-(4-{2-acetylamino-2-[3-carbamoyl-4-(3,5-dimethyl-benzyloxy)-benzylcarbamoyl]-ethyl}-phenyl) ester] | 2.5 |  | 
18 | CNC(=O)N[C@@H](Cc1ccc(OP(=O)(O)O)cc1)C(=O)NCc1ccc(OCC2CCCCC2)c(C(N)=O)c1 [Example 52] | 6.2 |  | 
19 | CC(=O)N[C@@H](Cc1ccc(C(F)(F)P(=O)(O)O)cc1)C(=O)NCc1ccc(OCC2CCCCC2)c(C(N)=O)c1 [Example 53, (S)-{4-[2-Acetylamino-2-(3-carbamoyl-4-cyclohexyl-methoxy-benzylcarbamoyl)-ethyl]-phenyl}-difluoro-methyl-phosphonic acid] | 12.1 |  | 
20 | CC(=O)N[C@@H](Cc1ccc(OP(=O)(O)O)cc1)C(=O)N[C@@H](CCC(=O)O)C(=O)NCCC12CC3CC(CC(C3)C1)C2 [Example 56, [S-(R*,R*)]-4-[2-Acetylamino-3-(4-phosphonooxy-phenyl)-propionylamino]-4-(2-adamantan-1-yl-ethylcarbamoyl)-butyric acid] | 3.8 |  | 
21 | CC(=O)N[C@@H](Cc1ccc(OP(=O)(O)O)cc1)C(=O)NCc1ccc(OCC2CCCCC2)c(C(=O)NN)c1 [Example 71, (S)-Phosphoric acid mono-{4-[2-acetylamino-2-(4-cyclohexylmethoxy-3-hydrazinocarbonyl-benzylcarbamoyl)-ethyl]-phenyl} ester] | 18 |  | 
